Patent US9422285B2, “Substituted pyrazolo[1,5-A]-pyridine-3-carboxamides and use thereof” (Bayer Pharma Aktiengesellschaft, priority 2014, dated 2016)
Where a name gives a salt, the structure may show the parent alone.

What follows are compounds tested against T1, recombinant guanylate cyclase reporter cell line (Rattus norvegicus, UniProt P19686+P20595) (assay: Effect on a recombinant guanylate cyclase reporter cell line (B-2)). Conditions: in some cases mean values for individual determinations.
T1 construct: expressed in transfected cells
T1 sequence (P19686 1-690): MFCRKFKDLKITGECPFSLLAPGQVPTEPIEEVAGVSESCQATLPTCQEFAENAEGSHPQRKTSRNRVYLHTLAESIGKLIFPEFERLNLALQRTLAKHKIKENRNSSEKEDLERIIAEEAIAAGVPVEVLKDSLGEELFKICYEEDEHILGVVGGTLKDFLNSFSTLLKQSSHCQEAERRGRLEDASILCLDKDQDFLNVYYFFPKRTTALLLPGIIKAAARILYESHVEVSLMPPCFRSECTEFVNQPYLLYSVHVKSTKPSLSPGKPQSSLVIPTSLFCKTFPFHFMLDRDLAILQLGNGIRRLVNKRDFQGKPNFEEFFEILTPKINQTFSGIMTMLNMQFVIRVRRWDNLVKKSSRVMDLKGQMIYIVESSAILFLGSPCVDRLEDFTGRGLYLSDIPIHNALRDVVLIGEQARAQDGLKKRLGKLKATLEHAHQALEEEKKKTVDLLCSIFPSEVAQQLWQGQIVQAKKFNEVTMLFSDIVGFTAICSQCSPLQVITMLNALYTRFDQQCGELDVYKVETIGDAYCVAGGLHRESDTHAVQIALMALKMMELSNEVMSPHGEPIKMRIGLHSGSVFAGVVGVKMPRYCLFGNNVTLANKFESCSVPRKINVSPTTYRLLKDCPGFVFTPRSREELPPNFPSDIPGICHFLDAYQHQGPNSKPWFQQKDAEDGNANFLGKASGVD
T1 sequence (P20595 1-619): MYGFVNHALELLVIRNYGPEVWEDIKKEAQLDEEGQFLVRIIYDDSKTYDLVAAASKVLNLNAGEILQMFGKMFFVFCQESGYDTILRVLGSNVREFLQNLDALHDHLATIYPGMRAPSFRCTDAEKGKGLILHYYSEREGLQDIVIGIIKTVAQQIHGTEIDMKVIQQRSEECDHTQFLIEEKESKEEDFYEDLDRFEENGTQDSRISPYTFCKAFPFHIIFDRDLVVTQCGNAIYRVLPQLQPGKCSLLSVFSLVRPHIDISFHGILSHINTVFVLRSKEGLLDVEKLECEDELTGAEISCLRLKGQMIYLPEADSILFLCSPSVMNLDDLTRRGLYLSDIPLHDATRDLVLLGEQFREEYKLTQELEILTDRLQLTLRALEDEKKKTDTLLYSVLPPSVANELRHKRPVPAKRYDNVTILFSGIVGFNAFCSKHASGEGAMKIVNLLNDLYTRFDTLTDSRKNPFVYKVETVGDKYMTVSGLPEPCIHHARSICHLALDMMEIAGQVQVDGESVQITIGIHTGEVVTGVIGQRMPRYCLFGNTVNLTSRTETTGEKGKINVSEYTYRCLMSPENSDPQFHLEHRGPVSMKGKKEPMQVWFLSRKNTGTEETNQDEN
Assay type: cell-based
Protocol: B-2. Effect on a Recombinant Guanylate Cyclase Reporter Cell Line
The cellular effect of the inventive compounds is determined using a recombinant guanylate cyclase reporter cell line, as described in F. Wunder et al., Anal. Biochem. 339, 104-112 (2005).
Representative MEC values (MEC=minimum effective concentration) for the inventive compounds are shown in the table below (in some cases as mean values for individual determinations): […]

Cc1cc(OCc2c(F)ccc(F)c2F)n2nc(C)c(C(=O)NCC3(O)CC3)c2c1 [Example 25, N-[(1-Hydroxycyclopropyl)methyl]-2,5-dimethyl-7-[(2,3,6-trifluorobenzyl)oxy]pyrazolo[1,5-a]pyridine-3-carboxamide] and Cc1cc(OCc2c(F)ccc(F)c2F)n2nc(C)c(C(=O)NCCC3(O)CCCC3)c2c1 [Example 5, N-[2-(1-Hydroxycyclopentyl)ethyl]-2,5-dimethyl-7-[(2,3,6-trifluorobenzyl)oxy]pyrazolo[1,5-a]pyridine-3-carboxamide] are the same in “MEC (minimum effective concentration)” value: 0.3 µM for the first, 0.3 µM for the second.

First: Cc1cc(OCc2c(F)cccc2F)n2nc(C)c(C(=O)Nc3ccnc4ccc(F)cc34)c2c1 [Example 80, 7-[(2,6-Difluorobenzyl)oxy]-N-(6-fluoroquinolin-4-yl)-2,5-dimethylpyrazolo[1,5-a]pyridine-3-carboxamide trifluoroacetate]
Second: Cc1cc(OCc2c(F)cccc2F)n2nc(C)c(C(=O)NCC(N)c3ccc4ncccc4c3)c2c1 (racemic) [Example 103, rac-N-[2-Amino-2-(quinolin-6-yl)ethyl]-7-[(2,6-difluorobenzyl)oxy]-2,5-dimethylpyrazolo[1,5-a]pyridine-3-carboxamide]
The “MEC (minimum effective concentration)” value of the first is 330-fold lower: 0.03 µM for the first, 10 µM for the second.

First: Cc1cc(OCc2c(F)cccc2F)n2nc(C)c(C(=O)NCC(C)(N)CCC(F)(F)F)c2c1 (single isomer, unassigned) [Example 42, ent-N-(2-Amino-5,5,5-trifluoro-2-methylpentyl)-7-[(2,6-difluorobenzyl)oxy]-2,5-dimethylpyrazolo[1,5-a]pyridine-3-carboxamide]
Second: Cc1cc(OCc2c(F)cccc2F)n2nc(C3CC3)c(C(=O)NCC(C)(N)CCC(F)(F)F)c2c1 (single isomer, unassigned) [Example 58, ent-N-(2-Amino-5,5,5-trifluoro-2-methylpentyl)-2-cyclopropyl-7-[(2,6-difluorobenzyl)oxy]-5-methylpyrazolo[1,5-a]pyridine-3-carboxamide]
The “MEC (minimum effective concentration)” value of the first is 10-fold higher: 0.3 µM for the first, 0.03 µM for the second.

Going from Cc1cc(OCc2c(F)cccc2F)n2nc(C)c(C(=O)NC3CCOc4c(C)cc(F)cc43)c2c1 (racemic) [Example 148, rac-7-[(2,6-Difluorobenzyl)oxy]-N-(6-fluoro-8-methyl-3,4-dihydro-2H-chromen-4-yl)-2,5-dimethylpyrazolo[1,5-a]pyridine-3-carboxamide] to Cc1cc(OCc2c(F)ccc(F)c2F)n2nc(C)c(C(=O)N[C@H]3CCOC3=O)c2c1 [Example 27, 2,5-Dimethyl-N-[(3S)-2-oxotetrahydrofuran-3-yl]-7-[(2,3,6-trifluorobenzyl)oxy]pyrazolo[1,5-a]pyridine-3-carboxamide], the “MEC (minimum effective concentration)” value falls from 1.0 µM to 0.3 µM (3.3-fold).

Going from Cc1cc(OCc2c(F)cccc2F)n2nc(C)c(C(=O)NC3CC(=O)N(C)c4ccccc43)c2c1 (racemic) [Example 77, rac-7-[(2,6-Difluorobenzyl)oxy]-2,5-dimethyl-N-(1-methyl-2-oxo-1,2,3,4-tetrahydroquinolin-4-yl)pyrazolo[1,5-a]pyridine-3-carboxamide trifluoroacetate] to Cc1cc(OCc2c(F)cccc2F)n2nc(C)c(C(=O)NCC3CCC(=O)N3)c2c1 (racemic) [Example 95, rac-7-[(2,6-Difluorobenzyl)oxy]-2,5-dimethyl-N-[(5-oxopyrrolidin-2-yl)methyl]pyrazolo[1,5-a]pyridine-3-carboxamide], the “MEC (minimum effective concentration)” value rises from 0.3 µM to 10 µM (33-fold).

CCC(N)(CC)CNC(=O)c1c(C)nn2c(OCc3c(F)ccc(F)c3F)cc(C)cc12 [Example 8, N-(2-Amino-2-ethylbutyl)-2,5-dimethyl-7-[(2,3,6-trifluorobenzyl)oxy]pyrazolo[1,5-a]pyridine-3-carboxamide] and Cc1cc(OCc2c(F)ccc(F)c2F)n2nc(C)c(C(=O)NCc3ccc(Cl)nc3)c2c1 [Example 21, N-[(6-Chloropyridin-3-yl)methyl]-2,5-dimethyl-7-[(2,3,6-trifluorobenzyl)oxy]pyrazolo[1,5-a]pyridine-3-carboxamide] are the same in “MEC (minimum effective concentration)” value: 0.3 µM for the first, 0.3 µM for the second.

First: Cc1cc(OCc2c(F)cccc2F)n2nc(C)c(C(=O)NC3CCNC(C(F)(F)F)C3)c2c1 (stereo not shown) [Example 154, 7-[(2,6-Difluorobenzyl)oxy]-2,5-dimethyl-N-[2-(trifluoromethyl)piperidin-4-yl]pyrazolo[1,5-a]pyridine-3-carboxamide]
Second: Cc1cc(OCc2c(F)cccc2F)n2nc(C)c(C(=O)NNC3CCCC3O)c2c1 (stereo not shown) [Example 68, 7-[(2,6-Difluorobenzyl)oxy]-N′-(2-hydroxycyclopentyl)-2,5-dimethylpyrazolo[1,5-a]pyridine-3-carbohydrazide trifluoroacetate]
The “MEC (minimum effective concentration)” value of the first is 10-fold lower: 1.0 µM for the first, 10 µM for the second.

CCCC(C)(N)CNC(=O)c1c(C(F)(F)F)nn2c(OCc3c(F)cccc3F)cc(C)cc12 (single isomer, unassigned) [Example 52, ent-N-(2-Amino-2-methylpentyl)-7-[(2,6-difluorobenzyl)oxy]-5-methyl-2-(trifluoromethyl)pyrazolol[1,5-a]pyridine-3-carboxamide trifluoroacetate] and CCCC(C)(N)CNC(=O)c1c(C)nn2c(OCc3c(F)cccc3F)cc(CC)cc12 (racemic) [Example 172, rac-N-(2-Amino-2-methylpentyl)-7-[(2,6-difluorobenzyl)oxy]-5-ethyl-2-methylpyrazolo[1,5-a]pyridine-3-carboxamide] are the same in “MEC (minimum effective concentration)” value: 0.3 µM for the first, 0.3 µM for the second.

Compared with CCCC(C)(N)CNC(=O)c1c(C)nn2c(OCCC(C)C)cc(C)cc12 (racemic) [Example 160, rac-N-(2-Amino-2-methylpentyl)-2,5-dimethyl-7-(3-methylbutoxy)pyrazolo[1,5-a]pyridine-3-carboxamide], CCOC(=O)NCCNC(=O)c1c(C)nn2c(OCc3c(F)cccc3F)cc(C)cc12 [Example 106, Ethyl {2-[({7-[(2,6-difluorobenzyl)oxy]-2,5-dimethylpyrazolo[1,5-a]pyridin-3-yl}carbonyl)amino]ethyl}carbamate] is 3-fold lower in “MEC (minimum effective concentration)” value: 3.0 µM for the first, 1.0 µM for the second.

Going from Cc1cc(OCc2c(F)ccc(F)c2F)n2nc(C)c(C(=O)NC3CC(C)(C)NC(C)(C)C3)c2c1 [Example 9, 2,5-Dimethyl-N-(2,2,6,6-tetramethylpiperidin-4-yl)-7-[(2,3,6-trifluorobenzyl)oxy]pyrazolo[1,5-a]pyridine-3-carboxamide] to Cc1cc(OCc2c(F)cccc2F)n2nc(C)c(C(=O)NC3CC(C)(C)C3N)c2c1 (stereo not shown) [Example 101, N-(2-Amino-3,3-dimethylcyclobutyl)-7-[(2,6-difluorobenzyl)oxy]-2,5-dimethylpyrazolo[1,5-a]pyridine-3-carboxamide], the “MEC (minimum effective concentration)” value rises from 1.0 µM to 3.0 µM (3-fold).

Compared with Cc1cc(OCc2c(F)cccc2F)n2nc(C)c(C(=O)NOCCO)c2c1 [Example 64, 7-[(2,6-Difluorobenzyl)oxy]-N-(2-hydroxyethoxy)-2,5-dimethylpyrazolo[1,5-a]pyridine-3-carboxamide trifluoroacetate], Cc1cc(OCc2c(F)cccc2F)n2nc(C)c(C(=O)NCC3CNCCO3)c2c1 (racemic) [Example 142, rac-7-[(2,6-Difluorobenzyl)oxy]-2,5-dimethyl-N-(morpholin-2-ylmethyl)pyrazolo[1,5-a]pyridine-3-carboxamide] is 3.3-fold higher in “MEC (minimum effective concentration)” value: 3.0 µM for the first, 10 µM for the second.
